Series [1] relates to Lolium multiflorum. Kind of series: Test Example 1-1: foliar spray, controlling effect on Lolium multiflorum. The format is in vivo. Also noted: key: 0 represents “no effect”; 10 represents “complete death”; a state of the plant therebetween is classified into 1 to 9. The following applies: treatment amount 250 g/ha; sprayed at first to second leaf stage; visually evaluated after 20 days. Here is the method: A plastic cup with a diameter of 8 cm and a depth of 6.5 cm was filled with soil. Seeds of Lolium multiflorum were sowed in the cup, and then the plant was grown until the first to second leaf stage. Then, a determined amount of a test solution containing the compound of the present invention was sprayed onto the whole plant uniformly. The test solution was prepared by dissolving a predetermined amount of the compound of the present invention in a 2% solution of Tween 20 (polyoxyethylene sorbitan fatty acid ester, MP Biomedicals, Inc.) in dimethylformamide and then, diluting the solution with water. After the spray treatment, the plant was grown in a greenhouse. After 20 days, a controlling effect of the compound on Lolium multiflorum was visually evaluated. The effect was classified into 11 levels, from 0 to 10 (0 represents “no effect”; 10 represents “complete death”; and a state of the plant therebetween is classified into 1 to 9).
Compound D as shown below was similarly tested as a comparative example.

For series [2], the system named is Echinochloa crus-galli. Kind of series: Test Example 1-2: foliar spray, controlling effect on Echinochloa crus-galli. In kind it is in vivo. Also noted: key: 0 represents “no effect”; 10 represents “complete death”; a state of the plant therebetween is classified into 1 to 9. The following applies: treatment amount 1,000 g/ha; sprayed at second- to third-leaf stage; visually evaluated after 20 days. Here is the method:
A plastic cup with a diameter of 8 cm and a depth of 6.5 cm was filled with soil. Seeds of Echinochloa crus-galli were sowed in the cup, and then the plant was grown until the second- to third-leaf stage. Then, a determined amount of a test solution containing the compound of the present invention was sprayed onto the whole plant uniformly. The test solution was prepared by dissolving a predetermined amount of the compound of the present invention in a 2% solution of Tween 20 (polyoxyethylene sorbitan fatty acid ester, MP Biomedicals, Inc.) in dimethylformamide and then diluting the solution with water. After the spray treatment, the plant was grown in a greenhouse. After 20 days, a controlling effect of the compound on Echinochloa crus-galli was visually evaluated. The effect was classified into 11 levels, from 0 to 10 (0 represents “no effect”; 10 represents “complete death”; and a state of the plant therebetween is classified into 1 to 9).
(§1) Compound D was similarly tested as a comparative example.

Series [3] relates to Galium aparine. Kind of series: Test Example 1-3: foliar spray, controlling effect on Galium aparine. The format is in vivo. Also noted: key: 0 represents “no effect”; 10 represents “complete death”; a state of the plant therebetween is classified into 1 to 9. To be noted: treatment amount 250 g/ha; sprayed at second- to third-leaf stage; visually evaluated after 20 days. The procedure:
A plastic cup with a diameter of 8 cm and a depth of 6.5 cm was filled with soil. Seeds of Galium aparine were sowed in the cup, and then the plant was grown until the second- to third-leaf stage. Then, a determined amount of a test solution containing the compound of the present invention was sprayed onto the whole plant uniformly. The test solution was prepared by dissolving a predetermined amount of the compound of the present invention in a 2% solution of Tween 20 (polyoxyethylene sorbitan fatty acid ester, MP Biomedicals, Inc.) in dimethylformamide and then diluting the solution with water. After the spray treatment, the plant was grown in a greenhouse. After 20 days, a controlling effect of the compound on Galium aparine was visually evaluated. The effect was classified into 11 levels, from 0 to 10 (0 represents “no effect”; 10 represents “complete death”; and a state of the plant therebetween is classified into 1 to 9).
as §1

In series [4] the test system is Adoxophyes orana. The series is described as follows: Test Example 2-1: artificial diet test on first-instar larvae of Adoxophyes orana. The format is in vivo. To be noted: 500 ppm test solution, 1 mL on artificial diet; 25° C., 7 days. The procedure: The formulation of the compound of the present invention obtained in Formulation Example 3 was diluted with water so that the concentration of the active ingredient became 500 ppm to prepare a test solution.
(§2) An artificial diet, Silkmate 2S (Nihon Nosan Kogyo Corp.) was sliced into 2 mm in thickness and then placed on the bottom of a polyethylene cup. Then, 1 mL of the test solution was poured into the polyethylene cup. After air dried, 30 first-instar larvae of Adoxophyes orana were released into the polyethylene cup, and the cup was sealed with a lid. After the polyethylene cup was kept at 25° C. for 7 days, the number of surviving insects was counted. A death rate was calculated by the following equation, and the effect of the tested compound was evaluated with the following insecticidal indexes. Death rate (%)={1−(Number of surviving insects/Number of tested insects)}×100 Insecticidal indexes 4: death rate of 100%, 3: death rate of 80-99%, 2: death rate of 60-79%, 1: death rate of 30-59%, 0: death rate of 0-29%

For series [5], the system named is Spodoptera litura. The series is described as follows: Test Example 2-2: artificial diet test on fourth-instar larvae of Spodoptera litura. The format is in vivo. To be noted: 500 ppm test solution, 1 mL on artificial diet; 25° C., 6 days. Here is the method:
as §2, with “The formulation of the compound of the present invention obtained in Formulation Example 3 was diluted with water so that the concentration of the active ingredient became 500 ppm to prepare a test solution. An” for “An”, “diet, Insecta LF” for “diet, Silkmate 2S”, “dried, 5 fourth-instar” for “dried, 30 first-instar”, “of Spodoptera litura” for “of Adoxophyes orana”, “for 6” for “for 7”

The subject of series [6] is Culex pipiens pallens. Kind of series: Test Example 2-3: last-instar larvae of Culex pipiens pallens released into dilution. The following applies: active ingredient concentration 3.5 ppm in water; after 8 days. The format is in vivo. Here is the method: The formulation of the compound of the present invention obtained in Reference Example 3 was diluted with water so that the concentration of the active ingredient became 500 ppm to prepare a test solution. 0.7 mL of the test solution was diluted with ion-exchanged water so that the active ingredient concentration became 3.5 ppm. Into the dilution, 20 last-instar larvae of Culex pipiens pallens were released. After 8 days, the number of dead insects was counted. A death rate was calculated by the following equation, and the effect of the tested compound was evaluated with following insecticidal indexes of 4: death rate of 91-100%, 2: death rate of 11-90%, and 0: death rate of 0-10%. Death rate (%)=(Number of dead insects/Number of tested insects)×100

For series [7], the system named is Aphis gossypii. Kind of series: Test Example 2-6: cucumber seedling spray, imagoes of Aphis gossypii. The format is in vivo. To be noted: 500 ppm, 10 mL sprayed on cucumber seedling one day after release; counted five days after spraying. The procedure: The formulation of the compound of the present invention obtained in Reference Example 3 was diluted with water so that the concentration of the active ingredient became 500 ppm to prepare a test solution. On a cucumber seedling at the second true leaf stage placed in a polyethylene cup, about 30 imagoes of Aphis gossypii were released. One day after the release of aphids, 10 mL of the test solution was sprayed on the plant. Five days after the spraying treatment, the number of the insects parasitizing the leaves of the plant was counted, and a controlling value was determined by the following equation. Controlling value (%)={1−(Cb×Tai)/(Cai×Tb)}×100 wherein Cb: the number of insects in a non-treated section before treatment, Cai: the number of insects in a non-treated section on observation, Tb: the number of insects in a treated-section before treatment, Tai: the number of insects in a treated section on observation.

The test system of series [8] is Bemisia tabaci. The series is described as follows: Test Example 2-7: tomato seedling spray, larvae of Bemisia tabaci. The following applies: 500 ppm, 10 ml/cup sprayed on tomato seedling; 25° C., 7 days. In kind it is in vivo. The procedure:
The formulation of the compound of the present invention obtained in Reference Example 4 was diluted with water so that the concentration of the active ingredient became 500 ppm to prepare a test solution. On a tomato seedling at the third true leaf stage placed in a polyethylene cup, imagoes of Bemisia tabaci were released and allowed to lay eggs for about 24 hours. The plant was placed in a greenhouse for 8 days. When larvae of Bemisia tabaci hatched from the eggs, 10 ml/cup of the test solution was sprayed. After the plant was kept at 25° C. for 7 days, the number of the larvae surviving on the tomato leaves was counted, and a controlling value was determined by the following equation. Controlling value (%)={1−(Cb×Tai)/(Cai×Tb)}×100 wherein Cb: the number of insects in a non-treated section before treatment, Cai: the number of insects in a non-treated section on observation, Tb: the number of insects in a treated-section before treatment, Tai: the number of insects in a treated section on observation.

For series [9], the system named is Frankliniella occidentalis. The series is described as follows: Test Example 2-8: sprayed cucumber leaf, larvae of Frankliniella occidentalis. The format is in vivo. To be noted: 500 ppm, 10 mL/cup sprayed on cucumber seedling; 25° C., 7 days. The procedure: The formulation of the compound of the present invention obtained in Reference Example 3 was diluted with water so that the concentration of the active ingredient became 500 ppm to prepare a test solution. On a cucumber seedling at the second true leaf stage planted in a polyethylene cup, 10 mL/cup of the test solution was sprayed. After the test solution was dried, the first true […] cut off and then placed in a polyethylene cup. Into the polyethylene cup, 20 larvae of Frankliniella occidentalis were released, and the cup was sealed with a lid. After the cup was kept at 25° C. for 7 days, the number of the insects surviving on the cucumber leaves was counted, and a controlling value was determined by the following equation. Controlling value (%)={1-(Cb×Tai)/(Cai×Tb)}×100 wherein Cb: the number of insects in a non-treated section before treatment, Cai: the number of insects in a non-treated section on observation, Tb: the number of insects in a treated-section before treatment, Tai: the number of insects in a treated section on observation.

Regarding `CCc1cc(C)cc(CC)c1-c1c(OC)c(C)nn(C)c1=O` [Compound D], the “controlling effect on Lolium multiflorum (11 levels, 0 to 10)” value in series [1] is listed as 0. In series [2], the “controlling effect on Echinochloa crus-galli (11 levels, 0 to 10)” value is 0. In addition, the “controlling effect on Galium aparine (11 levels, 0 to 10)” value in [3] is on record as 0.
Molecule `CCc1cc(CC)c(-c2c(OCS(C)(=O)=O)c(C)nn(C)c2=O)c(CC)c1` [I-4-1, 2,6-dimethyl-5-methylsulfonylmethoxy-4-(2,4,6-triethylphenyl)-3(2H)-pyridazinone] returned a melting point of 142 to 143 °C.
With `COCOc1c(C)nn(C)c(=O)c1-c1cc(-c2ccc(Cl)cc2)ccc1C` [I-1-6], the “insecticidal index (death rate)” value in series [4] is 4 (death rate of 100%); in series [5], 3 (death rate of 80-99%); in series [6], 4 (death rate of 91-100%). Further, the controlling value in [7], in series [8] and in [9] was ≥ 90% each time.

These data come from patent publication US8507410B2, “Pyridazinone compound and use thereof” (Sumitomo Chemical Company, Limited, priority 2009, dated 2013).
